One block for each compound: values may come before it.
Legend:
[1] = target: nNOS in 293T cells overexpressing nNOS (293T/nNOS cells) (Rattus norvegicus, UniProt P29476); assay: Cell-based nNOS inhibition assay; conditions: for activity in the cell-based assay (in words): A23187 (5 μM), 8 h
rat nNOS = rat nNOS (Rattus norvegicus, UniProt P29476); assay: NOS inhibition, hemoglobin; assay type: biochemical
[2] = rodent in vivo studies; cited from earlier work

Compound: Cc1cc(N)nc(C[C@@H]2CNC[C@@H]2NCCNCCc2cccc(F)c2)c1 [compound 2]
ability to penetrate the blood brain barrier (BBB) [2]: poor ability to penetrate the blood brain barrier

Compound: Cc1cc(N)nc(C[C@H]2CNC[C@H]2NCCNCCc2cccc(F)c2)c1 [compound 1]
ability to penetrate the blood brain barrier (BBB) [2]: poor ability to penetrate the blood brain barrier

Compound: Cc1cc(N)nc(CCc2ccc3ccc(CCc4cc(C)cc(N)n4)cc3c2)c1 [3c, 6,6'-(2,2'-(Naphthalene-2,7-diyl)bis(ethane-2,1-diyl))bis(4-methylpyridin-2-amine)]
binding / inhibition of nNOS (in words) (rat nNOS): sub-micromolar binding affinity

Compound: Cc1cc(N)nc(CCc2ccc3cc(CCc4cc(C)cc(N)n4)ccc3c2)c1 [3b, 6,6'-(2,2'-(Naphthalene-2,6-diyl)bis(ethane-2,1-diyl))bis(4-methylpyridin-2-amine)]
binding / inhibition of nNOS (in words) (rat nNOS): sub-micromolar binding affinity

Compound: Cc1cc(C)nc(NCc2ccc3cc(CNc4cc(C)cc(C)n4)ccc3c2)c1 [3a, N,N'-(Naphthalene-2,6-diylbis(methylene))bis(4,6-dimethylpyridin-2-amine)]
binding / inhibition of nNOS (in words) (rat nNOS): poor binding

More lines, now with the values ahead:

activity in the cell-based assay (in words) [1]: almost no activity
Compound: Cc1cc(N)nc(CCc2cccc(CCc3cc(C)nc(N)c3)c2)c1 [3h, 4-(3-(2-(6-Amino-4-methylpyridin-2-yl)ethyl)phenethyl)-6-methylpyridin-2-amine]

binding / inhibition of nNOS (in words) (rat nNOS): binds rather poorly
Compound: Cc1cc(CCc2cccc(CCc3cc(C)nc(N)c3)c2)cc(N)n1 [3i, 4,4'-(2,2'-(1,3-Phenylene)bis(ethane-2,1-diyl))bis(6-methylpyridin-2-amine)]

membrane penetration ability (in words, from cell-based assay) [1]: good membrane penetration ability
Compound: Cc1cc(N)nc(CCc2cncc(CCc3cc(C)nc(N)c3)c2)c1 [3k, 4-(2-(5-(2-(6-Amino-4-methylpyridin-2-yl)ethyl)pyridin-3-yl)ethyl)-6-methylpyridin-2-amine]

binding / inhibition of nNOS (in words) (rat nNOS): poor inhibitor
Compound: Cc1cc(N)nc(CCc2ccc3ccc(CCc4cc(C)nc(N)c4)cc3c2)c1 [3d, 4-(2-(7-(2-(6-Amino-4-methylpyridin-2-yl)ethyl)naphthalen-2-yl)ethyl)-6-methylpyridin-2-amine]

activity in the cell-based assay (in words) [1]: almost no activity
Compound: Cc1cc(N)nc(CCc2cccc(CCc3cc(C)cc(N)n3)c2)c1 [3g, 6,6'-(2,2'-(1,3-Phenylene)bis(ethane-2,1-diyl))bis(4-methylpyridin-2-amine)]

membrane penetration ability (in words, from cell-based assay) [1]: good membrane penetration ability
Compound: Cc1cc(N)nc(CCc2cncc(CCc3cc(C)cc(N)n3)c2)c1 [3j, 6,6'-(2,2'-(Pyridine-3,5-diyl)bis(ethane-2,1-diyl))bis(4-methylpyridin-2-amine)]

— publication PMC3072459 (Journal of medicinal chemistry, 2011)
